Experimental data as given in patent US20200002303A1, “C-GLYCOSIDE COMPOUNDS USEFUL FOR TREATING DISEASE” (Fimbrion Therapeutics, Inc., priority 2016, published 2020).

Biological target: T1, FimH (Escherichia coli, UniProt Q1R2J4)
T1 construct: performed with UTI89 bacteria and guinea pig red blood cells; endogenous in cells; host or cells: UTI89 bacteria (whole cells, type 1 piliated)
Assay type: cell-based
Conditions: concentration reducing bacterial agglutination of guinea pig red blood cells by greater than 90%; UTI89 bacteria
Description: The hemagglutination inhibition (HAI) assay was performed with UTI89 bacteria and guinea pig red blood cells, as previously described (S. J. Hultgren, W. R. Schwan, A. J. Schaeffer, J. L. Duncan Infect. Immun. 1986, 54, 613-620).

SMILES	HAI titer EC>90
Cc1cc(-c2ccc3nc[nH]c3c2)ccc1[C@@H](O)[C@H]1O[C@H](CO)[C@@H](O)[C@H](O)[C@@H]1O [Example 17, (2R,3S,4S,5S,6R)-2-((R)-(4-(3H-Benzo[d]imidazol-5-yl)-2-methylphenyl) (hydroxy)methyl)-6-(hydroxymethyl)-tetrahydro-2H-pyran-3,4,5-triol]	0.037 µM
CNc1cc(-c2ccc([C@@H](O)[C@H]3O[C@H](CO)[C@@H](O)[C@H](O)[C@@H]3O)c(C)c2)ccn1 [Example 24, (2R,3S,4S,5S,6R)-2-((R)-Hydroxy (2-methyl-4-(2-(methylamino)pyridin-4-yl)phenyl)methyl)-6-(hydroxymethyl)-tetrahydro-2H-pyran-3,4,5-triol]	0.032 µM
Cc1cc(-c2ccc3ccncc3c2)ccc1[C@@H](O)[C@H]1O[C@H](CO)[C@@H](O)[C@H](O)[C@@H]1O [Example 21, (2R,3S,4S,5S,6R)-2-((R)-Hydroxy (4-(isoquinolin-7-yl)-2-methylphenyl)methyl)-6-(hydroxymethyl)-tetrahydro-2H-pyran-3,4,5-triol]	0.016 µM
Cc1cc(N=[N+]=[N-])ccc1[C@@H](O)[C@H]1O[C@H](CO)[C@@H](O)[C@H](O)[C@@H]1O [Example 47, (2R,3S,4S,5S,6R)-2-((R)-(4-azido-2-methylphenyl)(hydroxy)methyl)-6-(hydroxymethyl)tetrahydro-2H-pyran-3,4,5-triol]	0.25 µM
Cc1cc(-c2cccc(C(=O)N(C)C)c2)ccc1[C@@H](O)[C@H]1O[C@H](CO)[C@@H](O)[C@H](O)[C@@H]1O [Example 41, 4′-((R)-Hydroxy ((2R,3S,4S,5S,6R)-3,4,5-trihydroxy-6-(hydroxymethyl)-tetrahydro-2H-pyran-2-yl)methyl)-N,N,5′-trimethylbiphenyl-3-carboxamide]	0.057 µM
CNC(=O)c1cc(C(=O)NC)cc(-c2ccc([C@@H](O)[C@H]3O[C@H](CO)[C@@H](O)[C@H](O)[C@@H]3O)c(C)c2)c1 [Example 38, 4′-((R)-Hydroxy ((2R,3S,4S,5S,6R)-3,4,5-trihydroxy-6-(hydroxymethyl)-tetrahydro-2H-pyran-2-yl)methyl)-N^3,N^5,3′-trimethylbiphenyl-3,5-dicarboxamide]	0.007 µM
CNC(=O)c1cccc(-c2ccc(C(F)(F)[C@H]3O[C@H](CO)[C@@H](O)[C@H](O)[C@@H]3O)c(C)c2)c1 [Example 9, 4′-(difluoro((2S,3S,4S,5S,6R)-3,4,5-trihydroxy-6-(hydroxymethyl)tetrahydro-2H-pyran-2-yl)methyl)-N,3′-dimethylbiphenyl-3-carboxamide]	1.5 µM
Cc1cc(-c2ccc3ccn(C)c(=O)c3c2)ccc1[C@@H](O)[C@H]1O[C@H](CO)[C@@H](O)[C@H](O)[C@@H]1O [Example 11, 7-(4-((R)-Hydroxy ((2R,3S,4S,5S,6R)-3,4,5-trihydroxy-6-(hydroxymethyl)-tetrahydro-2H-pyran-2-yl)methyl)-3-methylphenyl)-2-methylisoquinolin-1 (2H)-one]	0.011 µM
Cc1cc(-c2ccc3cc[nH]c(=O)c3c2)cc(C)c1[C@@H](O)[C@H]1OC(CO)[C@@H](O)[C@H](O)C1O (single isomer, unassigned) [Example 29]	0.108 µM
CNC(=O)c1cccc(-c2ccc([C@@H](O)[C@H]3O[C@H](CO)[C@@H](O)[C@H](O)[C@@H]3O)c(C(F)(F)F)c2)c1 [Example 39, 4′-((R)-Hydroxy ((2R,3S,4S,5S,6R)-3,4,5-trihydroxy-6-(hydroxymethyl)-tetrahydro-2H-pyran-2-yl)methyl)-N-methyl-5′-(trifluoromethyl)biphenyl-3-carboxamide]	0.015 µM
Cc1cc(-c2ccc3cc[nH]c(=O)c3c2)cc(C)c1[C@H](O)[C@H]1OC(CO)[C@@H](O)[C@H](O)C1O (single isomer, unassigned) [Example 30]	0.406 µM
CNC(=O)c1cccc(-c2ccc([C@@H](N)[C@H]3O[C@H](CO)[C@@H](O)[C@H](O)[C@@H]3O)c(C)c2)c1 [Example 6, 4′-((R)-amino((2R,3S,4R,5S,6R)-3,4,5-trihydroxy-6-(hydroxymethyl)tetrahydro-2H-pyran-2-yl)methyl)-N,3′-dimethylbiphenyl-3-carboxamide]	0.5 µM
Cc1cc(-c2cccc(C#N)c2)ccc1[C@@H](O)[C@H]1O[C@H](CO)[C@@H](O)[C@H](O)[C@@H]1O [Example 51, 4′-((R)-hydroxy((2R,3S,4S,5S,6R)-3,4,5-trihydroxy-6-(hydroxymethyl)tetrahydro-2H-pyran-2-yl)methyl)-3′-methylbiphenyl-3-carbonitrile]	0.026 µM
Cc1cc(-c2ccc3onc(C)c3c2)ccc1[C@@H](O)[C@H]1O[C@H](CO)[C@@H](O)[C@H](O)[C@@H]1O [Example 20, (2R,3S,4S,5S,6R)-2-((R)-Hydroxy (2-methyl-4-(3-methylbenzo[d]isoxazol-5-yl)phenyl)methyl)-6-(hydroxymethyl)-tetrahydro-2H-pyran-3,4,5-triol]	0.068 µM
Cc1cc(-c2ccc3cccnc3c2)ccc1[C@@H](O)[C@H]1O[C@H](CO)[C@@H](O)[C@H](O)[C@@H]1O [Example 15, (2R,3S,4S,5S,6R)-2-((R)-Hydroxy (2-methyl-4-(quinolin-7-yl)phenyl)methyl)-6-(hydroxymethyl)-tetrahydro-2H-pyran-3,4,5-triol]	0.015 µM
CNC(=O)c1cccc(-c2ccc([C@@H](O)[C@H]3O[C@H](CO)[C@@H](O)[C@H](O)[C@@H]3O)c(Cl)c2)c1 [Example 45, 3′-chloro-4′-((R)-hydroxy((2R,3S,4S,5S,6R)-3,4,5-trihydroxy-6-(hydroxymethyl)tetrahydro-2H-pyran-2-yl)methyl)-N-methylbiphenyl-3-carboxamide]	0.047 µM
O=C1NCCc2ccc(-c3ccc([C@@H](O)[C@H]4O[C@H](CO)[C@@H](O)[C@H](O)[C@@H]4O)c(C(F)(F)F)c3)cc21 [Example 33, 7-(4-((R)-Hydroxy ((2R,3S,4S,5S,6R)-3,4,5-trihydroxy-6-(hydroxymethyl)-tetrahydro-2H-pyran-2-yl)methyl)-3-(trifluoromethyl)phenyl)-3,4-dihydroisoquinolin-1 (2H)-one]	0.006 µM
Cc1cc(-c2ccnc(N(C)C)c2)ccc1[C@@H](O)[C@H]1O[C@H](CO)[C@@H](O)[C@H](O)[C@@H]1O [Example 27, (2R,3S,4S,5S,6R)-2-((R)-(4-(2-(Dimethylamino)pyridin-4-yl)-2-methylphenyl) (hydroxy)methyl)-6-(hydroxymethyl)-tetrahydro-2H-pyran-3,4,5-triol]	0.016 µM
Cc1cc(-c2ccc3c(c2)C(=O)NC3)ccc1[C@@H](O)[C@H]1O[C@H](CO)[C@@H](O)[C@H](O)[C@@H]1O [Example 19, 6-(4-((R)-Hydroxy ((2R,3S,4S,5S,6R)-3,4,5-trihydroxy-6-(hydroxymethyl)-tetrahydro-2H-pyran-2-yl)methyl)-3-methylphenyl)isoindolin-1-one]	0.016 µM
Cc1cc(-c2cccc(C(=O)Nc3ccccn3)c2)ccc1[C@@H](O)[C@H]1O[C@H](CO)[C@@H](O)[C@H](O)[C@@H]1O [Example 37, 4′-((R)-Hydroxy ((2R,3S,4S,5S,6R)-3,4,5-trihydroxy-6-(hydroxymethyl)-tetrahydro-2H-pyran-2-yl)methyl)-5′-methyl-N-(pyridin-2-yl)biphenyl-3-carboxamide]	0.012 µM
Cc1cc(-c2cccc3c2CCN(C)C3)ccc1[C@@H](O)[C@H]1O[C@H](CO)[C@@H](O)[C@H](O)[C@@H]1O [Example 5, (2R,3S,4S,5S,6R)-2-((R)-hydroxy(2-methyl-4-(2-methyl-1,2,3,4-tetrahydroisoquinolin-5-yl)phenyl)methyl)-6-(hydroxymethyl)tetrahydro-2H-pyran-3,4,5-triol]	1 µM
CNC(=O)c1cccc(-c2ccc(C(OC)[C@H]3O[C@H](CO)[C@@H](O)[C@H](O)[C@@H]3O)cc2C)c1 (single isomer, unassigned) [Example 8]	0.5 µM
Cc1cc(-n2cc(-c3cccnc3)nn2)ccc1[C@@H](O)[C@H]1O[C@H](CO)[C@@H](O)[C@H](O)[C@@H]1O [Example 49, (2R,3S,4S,5S,6R)-2-((R)-hydroxy(2-methyl-4-(4-(pyridin-3-yl)-1H-1,2,3-triazol-1-yl)-phenyl)methyl)-6-(hydroxymethyl)tetrahydro-2H-pyran-3,4,5-triol]	0.015 µM
Cc1cc(-c2ccc3onc(N)c3c2)ccc1[C@@H](O)[C@H]1O[C@H](CO)[C@@H](O)[C@H](O)[C@@H]1O [Example 28, (2R,3S,4S,5S,6R)-2-((R)-(4-(3-Aminobenzo[d]isoxazol-5-yl)-2-methylphenyl) (hydroxy)methyl)-6-(hydroxymethyl)-tetrahydro-2H-pyran-3,4,5-triol]	0.027 µM
O=C1NCCc2ccc(-c3ccc([C@H](O)[C@H]4O[C@H](CO)[C@@H](O)[C@H](O)[C@@H]4O)c(C(F)(F)F)c3)cc21 [Example 34, 7-(4-((S)-hydroxy ((2R,3S,4S,5S,6R)-3,4,5-trihydroxy-6-(hydroxymethyl)tetrahydro-2H-pyran-2-yl)methyl)-3-(trifluoromethyl)phenyl)-3,4-dihydroisoquinolin-1 (2H)-one]	3 µM
Cc1cc(-c2ccc(C#N)cc2)ccc1[C@@H](O)[C@H]1O[C@H](CO)[C@@H](O)[C@H](O)[C@@H]1O [Example 46, 4′-((R)-hydroxy((2R,3S,4S,5S,6R)-3,4,5-trihydroxy-6-(hydroxymethyl)tetrahydro-2H-pyran-2-yl)methyl)-3′-methylbiphenyl-4-carbonitrile]	0.053 µM
Cc1cc(-c2ccnc(-c3ccnc(Cl)c3)c2)ccc1[C@@H](O)[C@H]1O[C@H](CO)[C@@H](O)[C@H](O)[C@@H]1O [Example 23, (2R,3S,4S,5S,6R)-2-((R)-(4-(2′-Chloro-[2,4′-bipyridin]-4-yl)-2-methylphenyl) (hydroxy)methyl)-6-(hydroxymethyl)tetrahydro-2H-pyran-3,4,5-triol]	0.008 µM
